Values joined by “and” are separate entries in the source; they are usually repeats but may differ in a detail not shown here. Equal values may be shown once. One block for each compound: values may come before it.
What was measured:
mouse TAAR8c = biological target: T1, mouse TAAR8c (Mus musculus, UniProt Q5QD05); experiment: Cell-based receptor activation reporter assay (SEAP / Dual-Glo luciferase)
T1 construct: bovine rhodopsin N-terminal 20 amino acids (Rho tag); expressed in transfected cells; host or cells: HEK293(T) (SEAP assay) or Hana3A (Dual-Glo assay)
Experimental: (§1) Fluorescence was measured with a BioTek Microplate reader.

mouse TAAR5 = biological target: T2, mouse TAAR5 (Mus musculus, UniProt Q5QD14); experiment: as above
T2 construct: bovine rhodopsin N-terminal 20 amino acids (Rho tag); expressed in transfected cells; host or cells: HEK293(T) (SEAP assay) or Hana3A (Dual-Glo assay)
Experimental: as §1

shark TAARS1b = shark TAARS1b (Chiloscyllium punctatum, UniProt A0A401S5C1); experiment: as above; parameters: species or system bamboo shark
Experimental: as §1

catfish TAAR13h = catfish TAAR13h (Ictalurus punctatus, UniProt A0A2D0SG84); experiment: as above
Experimental: as §1

catfish TAAR13f = catfish TAAR13f (Ictalurus punctatus, UniProt A0A2D0SGW4); experiment: as above
Experimental: as §1

mouse TAAR6 = biological target: T3, mouse TAAR6 (Mus musculus, UniProt Q5QD13); experiment: as above
T3 construct: bovine rhodopsin N-terminal 20 amino acids (Rho tag); expressed in transfected cells; host or cells: HEK293(T) (SEAP assay) or Hana3A (Dual-Glo assay)
Experimental: as §1

rabbit TAAR8b = rabbit TAAR8b (Oryctolagus cuniculus, UniProt G1SRV7); experiment: as above
Experimental: as §1

cat TAAR6b = cat TAAR6b (Felis catus, UniProt A0ABI7X994); experiment: as above
Experimental: as §1

rat TAAR9 = biological target: T4, rat TAAR9 (Rattus norvegicus, UniProt Q923Y6); experiment: as above
T4 construct: bovine rhodopsin N-terminal 20 amino acids (Rho tag); expressed in transfected cells; host or cells: HEK293(T) (SEAP assay) or Hana3A (Dual-Glo assay)
T4 sequence (Q923Y6 1-338): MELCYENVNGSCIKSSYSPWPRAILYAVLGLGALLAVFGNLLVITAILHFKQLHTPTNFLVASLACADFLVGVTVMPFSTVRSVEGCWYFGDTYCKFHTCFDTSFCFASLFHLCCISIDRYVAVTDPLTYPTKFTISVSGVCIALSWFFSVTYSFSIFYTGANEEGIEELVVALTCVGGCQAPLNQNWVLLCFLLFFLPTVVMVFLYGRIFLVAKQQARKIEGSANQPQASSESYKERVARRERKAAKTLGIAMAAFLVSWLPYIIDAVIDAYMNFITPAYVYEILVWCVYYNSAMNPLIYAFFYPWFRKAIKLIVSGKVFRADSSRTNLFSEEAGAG
Experimental: as §1

rat TAAR6 = biological target: T5, rat TAAR6 (Rattus norvegicus, UniProt Q923Y5); experiment: as above
T5 construct: bovine rhodopsin N-terminal 20 amino acids (Rho tag); expressed in transfected cells; host or cells: HEK293(T) (SEAP assay) or Hana3A (Dual-Glo assay)
Experimental: as §1

mouse TAAR7d = biological target: T6, mouse TAAR7d (Mus musculus, UniProt Q5QD10); experiment: as above
T6 construct: bovine rhodopsin N-terminal 20 amino acids (Rho tag); expressed in transfected cells; host or cells: HEK293(T) (SEAP assay) or Hana3A (Dual-Glo assay)
Experimental: as §1

wild boar TAAR7 = wild boar TAAR7 (Sus scrofa, UniProt F1S3Q1); experiment: as above
Experimental: as §1

rat TAAR8a = biological target: T7, rat TAAR8a (Rattus norvegicus, UniProt Q923X9); experiment: as above
T7 construct: bovine rhodopsin N-terminal 20 amino acids (Rho tag); expressed in transfected cells; host or cells: HEK293(T) (SEAP assay) or Hana3A (Dual-Glo assay)
Experimental: as §1

rat TAAR7a = biological target: T8, rat TAAR7a (Rattus norvegicus, UniProt Q923Y2); experiment: as above
T8 construct: bovine rhodopsin N-terminal 20 amino acids (Rho tag); expressed in transfected cells; host or cells: HEK293(T) (SEAP assay) or Hana3A (Dual-Glo assay)
Experimental: as §1

hamster TAAR4 = hamster TAAR4 (Mesocricetus auratus, UniProt A0A1U7Q3I9); experiment: as above
Experimental: as §1

horse TAAR4 = horse TAAR4 (Equus caballus, UniProt F7BPI5); experiment: as above
Experimental: as §1

cat TAAR4 = cat TAAR4 (Felis catus, UniProt A0ABI7X9K0); experiment: as above
Experimental: as §1

zebrafish TAAR12j = zebrafish TAAR12j (Danio rerio, UniProt Q5QNN7); experiment: as above
Experimental: as §1

guinea pig TAAR4 = guinea pig TAAR4 (Cavia porcellus, UniProt H0W119); experiment: as above
Experimental: as §1

cow TAAR4 = cow TAAR4 (Bos taurus, UniProt F1MNY9); experiment: as above
Experimental: as §1

TARL1 = experiment: Response to 16 ligands at 10 µM, luciferase assay; format: cell-based; conditions: fig. 5B
Experimental: (§2) Ligand profiles and expression patterns of HTR4, TARL, and TAAR1. (A) qPCR analysis of different receptors in zebrafish tissues. Gapdh serves as a control. (B) Response of HTR4, TARL, TAARC1, and TAAR1 to 16 ligands at 10 μM. The heatmap is based on the ratio of fluorescence intensity of ligand–receptor interaction and no ligand controls in the luciferase assay. […] (C) PhyloPCA analysis on the responses of HTR4, TARL, TAARC1, and TAAR1 to these 16 ligands. […] Dots colored by receptor clades represent the ligand responses of receptors on the first two PC axes. Ligand eigenvectors are represented by lines and colored according to the ligand clusters. A ligand name is shown at the tip of the line if its eigenvector has a higher contribution (compared with other ligands) to either PC1 or PC2. […] (D) The presence of HTR4, TARL1, TARL2, and TAAR1 in several representative species in vertebrates is plotted. […]
(§3) Hana3A cells were plated onto 96-well plates (Greiner bio-one) with 50 µl growth medium (DMEM medium with 10% BCS and 5% penicillin–streptomycin solution with puromycin) and cultured at 37 °C with 5% CO2. […] The chemiluminescence of firefly luciferase and renilla luciferase were measured with a Biotek Microplate reader using the Dual-Glo Luciferase Assay System (Promega).

TARL2 = experiment: Response to 16 ligands at 10 µM, luciferase assay; format: cell-based, coelacanth and shark; conditions: fig. 5B
Experimental: as §2, §3

mouse TAAR8a = biological target: T9, mouse TAAR8a (Mus musculus, UniProt Q5QD07); experiment: Cell-based receptor activation reporter assay (SEAP / Dual-Glo luciferase)
T9 construct: bovine rhodopsin N-terminal 20 amino acids (Rho tag); expressed in transfected cells; host or cells: HEK293(T) (SEAP assay) or Hana3A (Dual-Glo assay)
Experimental: as §1

sheep TAAR5 = sheep TAAR5 (Ovis aries, UniProt A0ACI6PZ16); experiment: as above
Experimental: as §1

cat TAAR5 = cat TAAR5 (Felis catus, UniProt A0ABI7YAE2); experiment: as above
Experimental: as §1

hamster TAAR5 = hamster TAAR5 (Mesocricetus auratus, UniProt A0A1U7QEC3); experiment: cell-based
From the text: (§4) Next, we conducted high-throughput screening to further explore the functional properties of these aminergic receptors. We cloned 248 TAARs from 11 mammals (human, mouse, rat, guinea pig, hamster, cat, horse, rabbit, sheep, rhesus, and wild boar), two reptiles (alligator and chicken), six teleosts (zebrafish, catfish, fugu, medaka, salmon, and pufferfish), one lobed-finned fish (coelacanth), one holost fish (spotted gar), and one cartilaginous fish (bamboo shark) (fig. 2A). We also cloned eight TARLs from coelacanth, zebrafish, catfish, fugu, medaka, spotted gar, shark, and 28 TARLLs from sea lamprey (supplementary table S2, Supplementary Material online). In addition, we cloned two HTR4s from mouse and zebrafish. We then challenged all of the cloned receptors with a ligand library comprised 97 amines at 100 µM.
(§5) HEK293 cells were plated onto poly-D-lysine (Sigma–Aldrich) preincubated 96-well plates (Corning) with 50 µl growth medium (DMEM medium with 10% BCS and 5% penicillin–streptomycin solution) and cultured for 18–24 h. Receptor plasmids were cotransfected with Cre-SEAP plasmid using polyethylenimine (PEI, Polysciences) and incubated at 37 °C with 5% CO2. About 4 h later, cells were incubated with or without test compounds diluted in serum-free DMEM for 48 h, followed by incubating for 2 h at 70 °C. After returning to room temperature, 50 µl supernatant from each well was incubated with an equal volume of 0.3 mM 4-methylumbelliferyl phosphate (4-MUP, Sigma–Aldrich) in 2 M diethanolamine bicarbonate (Sigma–Aldrich), pH 10.0 for 15 min. Fluorescence was measured with a BioTek Microplate reader.
(§6) Hana3A cells were plated onto 96-well plates (Greiner bio-one) with 50 µl growth medium (DMEM medium with 10% BCS and 5% penicillin–streptomycin solution with puromycin) and cultured at 37 °C with 5% CO2. After 18–24 h, cells in each well were cotransfected with 50 ng receptor plasmid, 10 ng CRE-Luc, 10 ng pRL-SV40, and 10 ng mRTPs using Lipofectamine 2000 (Invitrogen), and incubated for 18 h. Medium was then replaced by 25 µl CD293 (Invitrogen) containing 1% glutamine with or without test compounds for 4 h. The chemiluminescence of firefly luciferase and renilla luciferase were measured with a Biotek Microplate reader using the Dual-Glo Luciferase Assay System (Promega).

cow TAAR5 = cow TAAR5 (Bos taurus, UniProt F1MTC9); experiment: cell-based; conditions: EC50 (μM)
From the text: as §4, §5, §6

spotted gar TARL1 = spotted gar TARL1 (Lepisosteus oculatus, UniProt W5NNR6); experiment: Cell-based receptor activation reporter assay (SEAP / Dual-Glo luciferase)
Experimental: as §1

coelacanth TAARC1b = coelacanth TAARC1b (Latimeria chalumnae, UniProt H3A8V0); experiment: as above
Experimental: as §1

coelacanth TARL2 = coelacanth TARL2 (Latimeria chalumnae, UniProt H3AWX3); experiment: as above
Experimental: as §1

zebrafish TAAR1 = zebrafish TAAR1 (Danio rerio, UniProt Q5QNN1); experiment: as above; conditions: zTAAR1
Experimental: as §1

(UniProt Z9G6W3R3V9) = experiment: as above; conditions: coelacanth TARL1
Experimental: as §1

zebrafish TARL1 = zebrafish TARL1 (Danio rerio, UniProt A0A8M1Q794); experiment: as above
Experimental: as §1

catfish TAAR13g = catfish TAAR13g (Ictalurus punctatus, UniProt A0A2D0SG81); experiment: as above
Experimental: as §1

mouse TAAR1 = mouse TAAR1 (Mus musculus, UniProt Q923Y8); experiment: cell-based; conditions: mTAAR1
From the text: as §4
We then compared the responses of HTR4 from mouse and zebrafish, TARL1 from zebrafish, catfish, fugu, medaka, spotted gar, and coelacanth, TARL2 from coelacanth and shark, TAAR1 from mouse and zebrafish to the 16 ligands at 10 µM (fig. 5B).
as §5, §6

TARLL1b = TARLL1b (Petromyzon marinus, UniProt A0AAJ7TCG4); experiment: Cell-based receptor activation reporter assay (SEAP / Dual-Glo luciferase); parameters: species or system sea lamprey; conditions: TARLL1b
Experimental: as §1

shark TARL2 = shark TARL2 (Chiloscyllium punctatum, UniProt A0A401SGR3); experiment: as above; parameters: species or system bamboo shark
Experimental: as §1

mouse HTR4 = mouse HTR4 (Mus musculus, UniProt P97288); experiment: cell-based
From the text: as §4, §5, §6

spotted gar TAAR1b = spotted gar TAAR1b (Lepisosteus oculatus, UniProt W5NMY1); experiment: Cell-based receptor activation reporter assay (SEAP / Dual-Glo luciferase)
Experimental: as §1

medaka TAAR21f = experiment: as above
Experimental: as §1

Sequence of wild boar TAAR7 (F1S3Q1 entry or part of it): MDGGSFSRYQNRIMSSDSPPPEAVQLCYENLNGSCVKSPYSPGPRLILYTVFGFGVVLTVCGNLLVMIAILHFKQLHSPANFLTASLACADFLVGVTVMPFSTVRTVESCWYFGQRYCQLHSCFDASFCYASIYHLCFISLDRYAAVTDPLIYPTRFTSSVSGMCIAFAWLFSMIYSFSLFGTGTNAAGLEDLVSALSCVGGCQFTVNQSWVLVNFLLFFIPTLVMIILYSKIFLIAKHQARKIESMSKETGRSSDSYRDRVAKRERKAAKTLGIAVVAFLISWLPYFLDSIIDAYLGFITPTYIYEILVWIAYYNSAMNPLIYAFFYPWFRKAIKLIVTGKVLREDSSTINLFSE
Sequence of guinea pig TAAR4 (H0W119 entry or part of it): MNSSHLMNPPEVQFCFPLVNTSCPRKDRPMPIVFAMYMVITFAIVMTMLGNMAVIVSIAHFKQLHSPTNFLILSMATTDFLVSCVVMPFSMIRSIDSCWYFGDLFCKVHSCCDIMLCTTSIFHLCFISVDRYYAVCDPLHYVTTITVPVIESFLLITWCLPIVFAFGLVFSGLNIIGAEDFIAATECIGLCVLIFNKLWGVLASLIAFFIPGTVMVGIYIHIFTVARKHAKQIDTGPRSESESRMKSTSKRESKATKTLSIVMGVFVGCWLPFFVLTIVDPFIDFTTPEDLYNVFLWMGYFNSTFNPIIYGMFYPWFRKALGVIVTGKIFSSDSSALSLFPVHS
Sequence of cat TAAR4 (A0ABI7X9K0 entry or part of it): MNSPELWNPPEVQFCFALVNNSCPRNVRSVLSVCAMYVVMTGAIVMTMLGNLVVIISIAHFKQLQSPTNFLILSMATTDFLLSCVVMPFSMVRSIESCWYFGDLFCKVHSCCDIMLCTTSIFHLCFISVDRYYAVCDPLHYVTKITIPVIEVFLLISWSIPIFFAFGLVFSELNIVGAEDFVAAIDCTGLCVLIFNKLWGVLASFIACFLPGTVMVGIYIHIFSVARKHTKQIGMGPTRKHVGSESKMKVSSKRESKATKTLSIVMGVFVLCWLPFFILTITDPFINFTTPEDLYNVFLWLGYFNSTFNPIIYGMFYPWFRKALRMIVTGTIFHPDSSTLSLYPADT
Sequence of shark TAARS1b (A0A401S5C1 entry or part of it): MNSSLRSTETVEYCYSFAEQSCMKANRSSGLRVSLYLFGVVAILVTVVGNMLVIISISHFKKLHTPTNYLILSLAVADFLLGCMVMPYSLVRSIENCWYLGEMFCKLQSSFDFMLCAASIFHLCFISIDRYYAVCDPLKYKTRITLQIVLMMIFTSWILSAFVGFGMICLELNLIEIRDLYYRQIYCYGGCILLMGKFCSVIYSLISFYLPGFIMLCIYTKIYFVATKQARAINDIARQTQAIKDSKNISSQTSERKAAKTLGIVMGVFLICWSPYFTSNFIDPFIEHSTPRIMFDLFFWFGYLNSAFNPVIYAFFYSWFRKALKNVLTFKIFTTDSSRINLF
Sequence of sheep TAAR5 (A0ACI6PZ16 entry or part of it): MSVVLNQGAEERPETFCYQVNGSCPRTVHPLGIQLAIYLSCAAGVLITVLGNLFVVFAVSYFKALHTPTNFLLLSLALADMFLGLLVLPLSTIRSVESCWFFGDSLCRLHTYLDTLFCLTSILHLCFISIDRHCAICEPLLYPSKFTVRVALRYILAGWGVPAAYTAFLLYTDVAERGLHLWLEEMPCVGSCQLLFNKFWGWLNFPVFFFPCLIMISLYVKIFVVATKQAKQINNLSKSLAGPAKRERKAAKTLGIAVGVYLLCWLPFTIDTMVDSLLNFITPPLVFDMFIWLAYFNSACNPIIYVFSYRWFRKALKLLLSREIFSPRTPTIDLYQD
Sequence of horse TAAR4 (F7BPI5 entry or part of it): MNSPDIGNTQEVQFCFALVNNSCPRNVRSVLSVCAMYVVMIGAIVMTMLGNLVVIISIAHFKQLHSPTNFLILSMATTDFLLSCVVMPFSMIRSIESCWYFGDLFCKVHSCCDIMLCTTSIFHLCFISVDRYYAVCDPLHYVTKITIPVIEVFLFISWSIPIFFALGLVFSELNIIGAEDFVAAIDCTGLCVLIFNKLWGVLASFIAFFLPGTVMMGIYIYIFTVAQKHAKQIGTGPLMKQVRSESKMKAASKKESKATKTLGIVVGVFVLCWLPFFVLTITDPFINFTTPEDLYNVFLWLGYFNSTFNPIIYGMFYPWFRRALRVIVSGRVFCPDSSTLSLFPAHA
Sequence of cow TAAR5 (F1MTC9 entry or part of it): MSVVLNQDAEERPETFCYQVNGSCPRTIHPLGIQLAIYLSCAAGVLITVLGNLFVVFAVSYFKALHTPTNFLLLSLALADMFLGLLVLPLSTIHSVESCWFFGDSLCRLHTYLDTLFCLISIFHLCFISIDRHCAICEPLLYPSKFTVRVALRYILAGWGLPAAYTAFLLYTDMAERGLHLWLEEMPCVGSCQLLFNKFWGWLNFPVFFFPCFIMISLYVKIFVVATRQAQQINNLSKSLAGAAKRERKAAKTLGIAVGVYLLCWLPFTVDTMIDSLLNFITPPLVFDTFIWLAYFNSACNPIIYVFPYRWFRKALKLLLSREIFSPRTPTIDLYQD
Sequence of hamster TAAR4 (A0A1U7Q3I9 entry or part of it): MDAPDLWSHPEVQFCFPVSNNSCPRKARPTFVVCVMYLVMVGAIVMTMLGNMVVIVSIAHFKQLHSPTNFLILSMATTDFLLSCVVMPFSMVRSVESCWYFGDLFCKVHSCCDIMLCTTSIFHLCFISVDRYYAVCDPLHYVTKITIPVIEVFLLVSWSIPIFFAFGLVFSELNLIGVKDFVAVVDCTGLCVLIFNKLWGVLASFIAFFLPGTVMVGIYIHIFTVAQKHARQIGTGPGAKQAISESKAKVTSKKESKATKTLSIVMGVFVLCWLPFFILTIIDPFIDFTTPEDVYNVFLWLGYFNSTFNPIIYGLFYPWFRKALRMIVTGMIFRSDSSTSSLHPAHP
Sequence of catfish TAAR13h (A0A2D0SG84 entry or part of it): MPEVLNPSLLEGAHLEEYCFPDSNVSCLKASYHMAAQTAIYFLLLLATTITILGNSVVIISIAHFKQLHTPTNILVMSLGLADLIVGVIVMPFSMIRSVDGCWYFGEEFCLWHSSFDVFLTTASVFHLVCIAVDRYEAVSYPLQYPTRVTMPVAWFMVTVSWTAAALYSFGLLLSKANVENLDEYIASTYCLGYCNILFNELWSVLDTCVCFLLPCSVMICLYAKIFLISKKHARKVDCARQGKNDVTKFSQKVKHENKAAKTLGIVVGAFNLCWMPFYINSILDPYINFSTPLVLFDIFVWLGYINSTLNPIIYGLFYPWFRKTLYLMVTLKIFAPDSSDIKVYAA
T9 sequence (Q5QD07 whole entry): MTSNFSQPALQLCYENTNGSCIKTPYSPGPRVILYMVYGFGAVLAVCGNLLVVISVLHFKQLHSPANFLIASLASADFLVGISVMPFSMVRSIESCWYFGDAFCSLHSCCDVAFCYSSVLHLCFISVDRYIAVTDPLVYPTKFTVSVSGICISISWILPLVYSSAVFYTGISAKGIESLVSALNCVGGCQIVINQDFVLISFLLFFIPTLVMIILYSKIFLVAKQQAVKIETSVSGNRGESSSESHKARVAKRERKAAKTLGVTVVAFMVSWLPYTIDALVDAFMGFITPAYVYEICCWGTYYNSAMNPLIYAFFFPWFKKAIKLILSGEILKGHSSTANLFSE
Sequence of spotted gar TARL1 (W5NNR6 entry or part of it): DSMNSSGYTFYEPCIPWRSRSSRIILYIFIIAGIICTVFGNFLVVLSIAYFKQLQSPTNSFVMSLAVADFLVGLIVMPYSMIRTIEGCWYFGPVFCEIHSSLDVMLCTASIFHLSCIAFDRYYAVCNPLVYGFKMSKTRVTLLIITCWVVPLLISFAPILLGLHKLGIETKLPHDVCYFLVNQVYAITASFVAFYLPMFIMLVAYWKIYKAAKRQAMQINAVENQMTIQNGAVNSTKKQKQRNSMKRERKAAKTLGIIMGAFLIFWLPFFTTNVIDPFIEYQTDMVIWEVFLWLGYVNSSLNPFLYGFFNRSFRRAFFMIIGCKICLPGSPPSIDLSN
Sequence of rabbit TAAR8b (G1SRV7 entry or part of it): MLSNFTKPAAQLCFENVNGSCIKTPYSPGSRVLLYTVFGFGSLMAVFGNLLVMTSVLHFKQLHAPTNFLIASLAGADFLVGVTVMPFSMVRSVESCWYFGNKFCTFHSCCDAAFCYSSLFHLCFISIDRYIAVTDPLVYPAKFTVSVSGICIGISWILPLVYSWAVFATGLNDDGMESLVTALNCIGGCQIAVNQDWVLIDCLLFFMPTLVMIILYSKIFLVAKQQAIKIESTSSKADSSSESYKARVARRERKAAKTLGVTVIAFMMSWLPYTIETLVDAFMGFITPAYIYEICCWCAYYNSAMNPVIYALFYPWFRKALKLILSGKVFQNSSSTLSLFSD
Sequence of mouse HTR4 (P97288 whole entry): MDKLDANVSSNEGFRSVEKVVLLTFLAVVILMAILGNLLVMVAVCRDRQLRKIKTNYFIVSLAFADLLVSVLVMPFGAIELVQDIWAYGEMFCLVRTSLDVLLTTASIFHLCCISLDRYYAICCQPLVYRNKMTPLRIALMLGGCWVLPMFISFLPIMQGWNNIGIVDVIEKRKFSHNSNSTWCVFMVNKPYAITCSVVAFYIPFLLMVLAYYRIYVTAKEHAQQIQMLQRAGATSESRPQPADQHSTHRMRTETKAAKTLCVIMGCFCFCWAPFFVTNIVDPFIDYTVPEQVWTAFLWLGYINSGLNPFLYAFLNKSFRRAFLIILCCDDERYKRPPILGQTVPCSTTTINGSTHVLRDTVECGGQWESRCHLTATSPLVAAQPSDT
T3 sequence (Q5QD13 whole entry): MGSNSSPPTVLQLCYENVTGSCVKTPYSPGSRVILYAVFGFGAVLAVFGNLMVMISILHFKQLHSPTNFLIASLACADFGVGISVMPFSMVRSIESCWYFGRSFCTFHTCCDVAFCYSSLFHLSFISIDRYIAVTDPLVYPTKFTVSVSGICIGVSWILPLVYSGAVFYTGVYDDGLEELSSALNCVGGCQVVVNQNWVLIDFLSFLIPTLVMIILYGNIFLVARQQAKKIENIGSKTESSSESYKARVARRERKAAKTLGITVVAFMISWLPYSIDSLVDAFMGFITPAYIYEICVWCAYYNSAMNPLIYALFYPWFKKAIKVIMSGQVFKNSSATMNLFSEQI

- EC50 (mouse TAAR8c): 1500 nM
- EC50 (mouse TAAR5): 8.2 µM
- EC50 (shark TAARS1b): 17.6 µM
SMILES: CN1CCCCC1 [1-methylpiperidine]

SMILES: N=C(N)NCCCCN [Agmatine, agmatine]
- EC50 (catfish TAAR13h): 165 µM
- EC50 (catfish TAAR13f): 0.04 nM

SMILES: CN(C)C1CCCCC1 [N,N-dimethylcyclohexylamine]
- EC50 (mouse TAAR6): ~50 µM
- EC50 (rabbit TAAR8b): ~50 µM
- EC50 (cat TAAR6b): 101 µM
- EC50 (rat TAAR9): ~30 µM
- EC50 (rat TAAR6): ~50 µM
- EC50 (mouse TAAR7d): 107 µM
- EC50 (wild boar TAAR7): 50 µM and ~50 µM
- EC50 (rat TAAR8a): 27.6 µM
- EC50 (rat TAAR7a): 49.5 µM

SMILES: NCCc1ccccc1 [Phenylethylamine, phenylethylamine]
- EC50 (hamster TAAR4): 300 µM and ~300 µM
- EC50 (horse TAAR4): 100 µM and ~100 µM
- EC50 (cat TAAR4): 30 µM and ~30 µM
- EC50 (zebrafish TAAR12j): 4.8 µM
- EC50 (guinea pig TAAR4): 150 µM and ~150 µM
- EC50 (cow TAAR4): 98.4 µM
- TARL1 ligand profile (TARL1): ligands include
- TARL2 ligand profile (TARL2): cannot recognize

SMILES: C1CCNCC1 [Piperidine, piperidine]
- EC50 (mouse TAAR8a): ~300 µM

SMILES: CN(C)C [Trimethylamine, trimethylamine]
- EC50 (sheep TAAR5): 500 µM and ~500 µM
- EC50 (cat TAAR5): 6.9 µM
- EC50 (shark TAARS1b): 1.4 µM
- EC50 (hamster TAAR5): 2300 nM
- EC50 (cow TAAR5): 300 µM and ~300 µM

SMILES: NCCc1c[nH]c2ccccc12 [Tryptamine, tryptamine]
- EC50 (spotted gar TARL1): 3.1 µM
- EC50 (coelacanth TAARC1b): ~150 µM
- EC50 (coelacanth TARL2): ~200 µM
- EC50 (zebrafish TAAR1): ~52 µM
- EC50 ((UniProt Z9G6W3R3V9)): 18.1 µM
- EC50 (zebrafish TARL1): 40 nM
- EC50 (catfish TAAR13g): ~30 µM
- TARL1 ligand profile (TARL1): ligands include
- EC50 (mouse TAAR1): ~28 µM
- EC50 (TARLL1b): ~100 µM
- EC50 (shark TARL2): ~40 µM
- EC50 (mouse HTR4): ~180 µM

- EC50 (spotted gar TAAR1b): 700 nM
- EC50 (medaka TAAR21f): 90 nM
SMILES: NCCc1ccc(O)cc1 [Tyramine, tyramine]
